Assay results reported in ChEMBL document CHEMBL1909281, “FDA-approved drug labeling for the study of drug-induced liver injury” (Drug Discov Today, 2011).

Tested on: Hepatotoxicity
Assay: FDA Liver Toxicity Knowledge Base Benchmark Dataset (LTKB-BD) drugs of most concern for DILI
Details: not given

Compared with CC1=C(CC(=O)O)c2cc(F)ccc2/C1=C\c1ccc([S+](C)[O-])cc1 (centres undefined), O=C(O)c1ccc(-n2nc(-c3ccccc3O)nc2-c2ccccc2O)cc1 [DEFERASIROX] is lower in “LTKB_BD DILI severity score” value: 8 for the first, 7 for the second.

First: CCC[C@@]1(CCc2ccccc2)CC(O)=C([C@H](CC)c2cccc(NS(=O)(=O)c3ccc(C(F)(F)F)cn3)c2)C(=O)O1
Second: COc1ccccc1Oc1c(NS(=O)(=O)c2ccc(C(C)(C)C)cc2)nc(-c2ncccn2)nc1OCCO [BOSENTAN]
The “LTKB_BD DILI severity score” value of the first is higher: 8 for the first, 7 for the second.

CC(C)(C)NC(=O)[C@@H]1CN(Cc2cccnc2)CCN1C[C@@H](O)C[C@@H](Cc1ccccc1)C(=O)N[C@H]1c2ccccc2C[C@H]1O.O and CC(=O)O[C@@]12CO[C@@H]1C[C@H](O)[C@@]1(C)C(=O)[C@H](O)C3=C(C)[C@@H](OC(=O)[C@H](O)[C@@H](NC(=O)OC(C)(C)C)c4ccccc4)C[C@@](O)([C@@H](OC(=O)c4ccccc4)[C@H]21)C3(C)C.O.O.O [DOCETAXEL] are the same in “LTKB_BD DILI severity score” value: 8 for the first, 8 for the second.

Compared with COc1ccc(CCN(C)CCCC(C#N)(c2ccc(OC)c(OC)c2)C(C)C)cc1OC (centres undefined), CCCCc1oc2ccccc2c1C(=O)c1cc(I)c(OCCN(CC)CC)c(I)c1 [AMIODARONE] is higher in “LTKB_BD DILI severity score” value: 4 for the first, 8 for the second.

Nc1nc(NC2CC2)c2ncn([C@H]3C=C[C@@H](CO)C3)c2n1 [ABACAVIR] and O=c1[nH]cnc2c1ncn2[C@H]1CC[C@@H](CO)O1 [DIDANOSINE] are the same in “LTKB_BD DILI severity score” value: 8 for the first, 8 for the second.

C[C@H]1O[C@H](O[C@H]2[C@H](O)[C@@H](O)[C@@H](O[C@H]3[C@H](O)[C@@H](O)C(O)O[C@@H]3CO)O[C@@H]2CO)[C@H](O)[C@@H](O)[C@@H]1N[C@H]1C=C(CO)[C@@H](O)[C@H](O)[C@H]1O (some centres undefined) [ACARBOSE] and CC[C@H]1OC(=O)[C@H](C)[C@@H](O[C@H]2C[C@@](C)(OC)[C@@H](O)[C@H](C)O2)[C@H](C)[C@@H](O[C@@H]2O[C@H](C)C[C@H](N(C)C)[C@H]2O)[C@](C)(O)C[C@@H](C)C(=O)[C@H](C)[C@@H](O)[C@]1(C)O [ERYTHROMYCIN] are the same in “LTKB_BD DILI severity score” value: 5 for the first, 5 for the second.

COc1cc(C)c(/C=C/C(C)=C/C=C/C(C)=C/C(=O)O)c(C)c1C [ACITRETIN] and COC(c1ccccc1)(c1ccccc1)[C@H](Oc1nc(C)cc(C)n1)C(=O)O [AMBRISENTAN] are the same in “LTKB_BD DILI severity score” value: 5 for the first, 5 for the second.

Compared with Nc1ccc(C(=O)O)c(O)c1 [AMINOSALICYLIC ACID], C[C@@](Cc1ccc(O)c(O)c1)(NN)C(=O)O.O [CARBIDOPA] is lower in “LTKB_BD DILI severity score” value: 5 for the first, 4 for the second.

CC(O)(CS(=O)(=O)c1ccc(F)cc1)C(=O)Nc1ccc(C#N)c(C(F)(F)F)c1 (centres undefined) [BICALUTAMIDE] and CC(C)C(=O)Nc1ccc([N+](=O)[O-])c(C(F)(F)F)c1 [FLUTAMIDE] are the same in “LTKB_BD DILI severity score” value: 8 for the first, 8 for the second.

CS(=O)(=O)OCCCCOS(C)(=O)=O [BUSULFAN] and CCc1cccc2c3c([nH]c12)C(CC)(CC(=O)O)OCC3 (centres undefined) [ETODOLAC] are the same in “LTKB_BD DILI severity score” value: 8 for the first, 8 for the second.

Going from NC(=O)N1c2ccccc2C=Cc2ccccc21 [CARBAMAZEPINE] to CC(C(=O)O)c1cccc(Oc2ccccc2)c1 (centres undefined) [FENOPROFEN], the “LTKB_BD DILI severity score” value rises from 7 to 8.

First: O=C(O)c1cn(C2CC2)c2cc(N3CCNCC3)c(F)cc2c1=O [CIPROFLOXACIN]
Second: CC(=O)N1CCN(c2ccc(OCC3COC(Cn4ccnc4)(c4ccc(Cl)cc4Cl)O3)cc2)CC1 (centres undefined) [KETOCONAZOLE]
The “LTKB_BD DILI severity score” value of the first is lower: 7 for the first, 8 for the second.

First: CN(C)/N=N/c1[nH]cnc1C(N)=O [DACARBAZINE]
Second: NNC(=O)c1ccncc1 [ISONIAZID]
The “LTKB_BD DILI severity score” value of the first is lower: 6 for the first, 8 for the second.

Going from C#C[C@]1(O)CC[C@H]2[C@@H]3CCC4=Cc5oncc5C[C@]4(C)[C@H]3CC[C@@]21C [DANAZOL] to Cc1cc(C(=O)NNCc2ccccc2)no1 [ISOCARBOXAZID], the “LTKB_BD DILI severity score” value falls from 8 to 5.

Compared with O=C1CN(/N=C/c2ccc(-c3ccc([N+](=O)[O-])cc3)o2)C(O)=N1 [DANTROLENE], NC(=O)OCC(COC(N)=O)c1ccccc1 [FELBAMATE] is lower in “LTKB_BD DILI severity score” value: 8 for the first, 7 for the second.

CC[C@@H](CO)NCCN[C@@H](CC)CO [ETHAMBUTOL] and NC(=O)NO [HYDROXYUREA] are the same in “LTKB_BD DILI severity score” value: 8 for the first, 8 for the second.

Same assay, conditions: Liver

Going from Nc1ccn([C@@H]2O[C@H](CO)[C@@H](O)[C@@H]2O)c(=O)n1 [CYTARABINE] to OC(Cn1cncn1)(Cn1cncn1)c1ccc(F)cc1F [FLUCONAZOLE], the “LTKB_BD DILI severity score” value rises from 3 to 8.

First: O=C(O)Cc1ccccc1Nc1c(Cl)cccc1Cl [DICLOFENAC]
Second: CC1=NN(c2ccc(C)c(C)c2)C(=O)/C1=N\Nc1cccc(-c2cccc(C(=O)O)c2)c1O [ELTROMBOPAG]
The “LTKB_BD DILI severity score” value of the first is higher: 7 for the first, 6 for the second.

Tested on: Hepatotoxicity
Details: not given

First: CCC1=C(C)CN(C(=O)NCCc2ccc(S(=O)(=O)NC(=O)N[C@H]3CC[C@H](C)CC3)cc2)C1=O [GLIMEPIRIDE]
Second: COC1=CC(=O)C[C@@H](C)[C@]12Oc1c(Cl)c(OC)cc(OC)c1C2=O [GRISEOFULVIN]
The “LTKB_BD DILI severity score” value of the first is higher: 7 for the first, 3 for the second.

Compared with O=C(CCCN1CCC(O)(c2ccc(Cl)cc2)CC1)c1ccc(F)cc1 [HALOPERIDOL], CC(C)Cc1ccc(C(C)C(=O)O)cc1 (centres undefined) [IBUPROFEN] is lower in “LTKB_BD DILI severity score” value: 5 for the first, 3 for the second.

First: O=P1(NCCCl)OCCCN1CCCl (centres undefined) [IFOSFAMIDE]
Second: CN(C)CCCN1c2ccccc2CCc2ccccc21 [IMIPRAMINE]
The “LTKB_BD DILI severity score” value of the first is higher: 4 for the first, 3 for the second.

COc1ccc2c(c1)c(CC(=O)O)c(C)n2C(=O)c1ccc(Cl)cc1 [INDOMETHACIN] and O[C@@H]1CO[C@H]2[C@@H]1OC[C@@H]2O [ISOSORBIDE] are the same in “LTKB_BD DILI severity score” value: 3 for the first, 3 for the second.

Going from CC1=C(/C=C/C(C)=C/C=C/C(C)=C\C(=O)O)C(C)(C)CCC1 [ISOTRETINOIN] to O=C(c1ccccc1)c1ccc2n1CCC2C(=O)O (centres undefined) [KETOROLAC], the “LTKB_BD DILI severity score” value rises from 2 to 3.

Compared with COC(=O)Nc1nc2ccc(C(=O)c3ccccc3)cc2[nH]1 [MEBENDAZOLE], COCCc1ccc(OCC(O)CNC(C)C)cc1 (centres undefined) [METOPROLOL] is higher in “LTKB_BD DILI severity score” value: 3 for the first, 5 for the second.

First: CN(C)c1ccc(O)c2c1C[C@H]1C[C@H]3[C@H](N(C)C)C(O)=C(C(N)=O)C(=O)[C@@]3(O)C(O)=C1C2=O [MINOCYCLINE]
Second: CC(C)(O)c1ccccc1CC[C@@H](SCC1(CC(=O)O)CC1)c1cccc(/C=C/c2ccc3ccc(Cl)cc3n2)c1 [MONTELUKAST]
The “LTKB_BD DILI severity score” value of the first is lower: 2 for the first, 3 for the second.

Compared with COC(=O)C1=C(C)NC(C)=C(C(=O)OC)C1c1ccccc1[N+](=O)[O-] [NIFEDIPINE], CNC(=C[N+](=O)[O-])NCCSCc1csc(CN(C)C)n1 [NIZATIDINE] is higher in “LTKB_BD DILI severity score” value: 3 for the first, 5 for the second.

Compared with CCOC(=O)C1=C[C@@H](OC(CC)CC)[C@H](NC(C)=O)[C@@H](N)C1 [OSELTAMIVIR], CN(C)[C@@H]1C(O)=C(C(N)=O)C(=O)[C@@]2(O)C(O)=C3C(=O)c4c(O)cccc4[C@@](C)(O)[C@H]3[C@H](O)[C@@H]12 [OXYTETRACYCLINE] is lower in “LTKB_BD DILI severity score” value: 3 for the first, 2 for the second.

Compared with Fc1ccc([C@@H]2CCNC[C@H]2COc2ccc3c(c2)OCO3)cc1 [PAROXETINE], CC(C)(S)[C@@H](N)C(=O)O [PENICILLAMINE] is lower in “LTKB_BD DILI severity score” value: 8 for the first, 3 for the second.

CCC1(c2ccccc2)C(=O)NC(=O)NC1=O [PHENOBARBITAL] and CCc1ccc(CCOc2ccc(CC3SC(=O)NC3=O)cc2)nc1 (centres undefined) [PIOGLITAZONE] are the same in “LTKB_BD DILI severity score” value: 3 for the first, 3 for the second.

CN1C(C(=O)Nc2ccccn2)=C(O)c2ccccc2S1(=O)=O [PIROXICAM] and CC[C@H](C)C(=O)O[C@H]1C[C@H](O)C=C2C=C[C@H](C)[C@H](CC[C@@H](O)C[C@@H](O)CC(=O)O)[C@H]21 [PRAVASTATIN] are the same in “LTKB_BD DILI severity score” value: 3 for the first, 3 for the second.

C[C@]12C=CC(=O)C=C1CC[C@@H]1[C@@H]2[C@@H](O)C[C@@]2(C)[C@H]1CC[C@]2(O)C(=O)CO [PREDNISOLONE] and CC(C)NCC(O)COc1cccc2ccccc12 (centres undefined) [PROPRANOLOL] are the same in “LTKB_BD DILI severity score” value: 3 for the first, 3 for the second.

Compared with NC(=O)c1cnccn1 [PYRAZINAMIDE], CNC(=C[N+](=O)[O-])NCCSCc1ccc(CN(C)C)o1 [RANITIDINE] is higher in “LTKB_BD DILI severity score” value: 3 for the first, 5 for the second.

Going from NC(=O)c1ncn([C@@H]2O[C@H](CO)[C@@H](O)[C@H]2O)n1 [RIBAVIRIN] to CC(=O)S[C@@H]1CC2=CC(=O)CC[C@]2(C)[C@H]2CC[C@@]3(C)[C@@H](CC[C@@]34CCC(=O)O4)[C@H]12 [SPIRONOLACTONE], the “LTKB_BD DILI severity score” value falls from 7 to 2.

Compared with C=CC[C@@H]1/C=C(\C)C[C@H](C)C[C@H](OC)[C@H]2O[C@@](O)(C(=O)C(=O)N3CCCC[C@H]3C(=O)O[C@H](/C(C)=C/[C@@H]3CC[C@@H](O)[C@H](OC)C3)[C@H](C)[C@@H](O)CC1=O)[C@H](C)C[C@@H]2OC [TACROLIMUS ANHYDROUS], CN(C)[C@@H]1C(O)=C(C(N)=O)C(=O)[C@@]2(O)C(O)=C3C(=O)c4c(O)cccc4[C@@](C)(O)[C@H]3C[C@@H]12 [TETRACYCLINE] is lower in “LTKB_BD DILI severity score” value: 5 for the first, 2 for the second.

First: CN(C)CCOc1ccc(/C(=C(/CCCl)c2ccccc2)c2ccccc2)cc1 [TOREMIFENE]
Second: O=c1n(CCCN2CCN(c3cccc(Cl)c3)CC2)nc2ccccn12 [TRAZODONE]
The “LTKB_BD DILI severity score” value of the first is lower: 3 for the first, 5 for the second.

Going from CN1CCN(CCCN2c3ccccc3Sc3ccc(C(F)(F)F)cc32)CC1 [TRIFLUOPERAZINE] to COc1ccc(C(CN(C)C)C2(O)CCCCC2)cc1 (centres undefined) [VENLAFAXINE], the “LTKB_BD DILI severity score” value rises from 2 to 7.

Going from CC(=O)CC(c1ccccc1)c1c(O)c2ccccc2oc1=O (centres undefined) [WARFARIN] to CARBOPLATIN, the “LTKB_BD DILI severity score” value falls from 5 to 3.

Same assay, conditions: Liver

First: CNCCCC12CCC(c3ccccc31)c1ccccc12 [MAPROTILINE]
Second: CN[C@H]1CC[C@@H](c2ccc(Cl)c(Cl)c2)c2ccccc21 [SERTRALINE]
The “LTKB_BD DILI severity score” value of the first is higher: 5 for the first, 3 for the second.

Cc1cccc(C)c1OCC(C)N (centres undefined) [MEXILETINE] and COc1ccc2cc([C@H](C)C(=O)O)ccc2c1 [NAPROXEN] are the same in “LTKB_BD DILI severity score” value: 3 for the first, 3 for the second.

With O=C1NC(=O)C(c2ccccc2)(c2ccccc2)N1 [PHENYTOIN] the “LTKB_BD DILI severity score” value was 3.
